Measured values as given in PubChem BioAssay (NCI).
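48-hour exposure; five concentrations; linearly interpolated endpoints. Here, GI50 denotes the concentration required for 50% inhibition of growth. TGI denotes the concentration required for complete inhibition of growth.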

Assays:
Assay in all cases: DTP human tumour cell line panel, 48 h
ACHN renal = tested on: ACHN renal
EKVX NSCLC = tested on: EKVX NSCLC
CCRF-CEM leukemia = tested on: CCRF-CEM leukemia
SK-OV-3 ovarian = tested on: SK-OV-3 ovarian
SNB-19 CNS = tested on: SNB-19 CNS
SK-MEL-28 melanoma = tested on: SK-MEL-28 melanoma
UO-31 renal = tested on: UO-31 renal
OVCAR-4 ovarian = tested on: OVCAR-4 ovarian
SNB-75 CNS = tested on: SNB-75 CNS
HL-60(TB) leukemia = tested on: HL-60(TB) leukemia

Row | SMILES | TGI (ACHN renal) | TGI (EKVX NSCLC) | TGI (CCRF-CEM leukemia) | TGI (SK-OV-3 ovarian) | TGI (SNB-19 CNS) | TGI (SK-MEL-28 melanoma) | TGI (UO-31 renal) | TGI (OVCAR-4 ovarian) | TGI (SNB-75 CNS) | TGI (HL-60(TB) leukemia) | GI50 (ACHN renal) | GI50 (EKVX NSCLC) | GI50 (CCRF-CEM leukemia) | GI50 (SK-OV-3 ovarian) | GI50 (SNB-19 CNS) | GI50 (SK-MEL-28 melanoma) | GI50 (UO-31 renal) | GI50 (OVCAR-4 ovarian) | GI50 (SNB-75 CNS) | GI50 (HL-60(TB) leukemia)
1 | Cc1ncc([N+](=O)[O-])n1CCNC(=O)CCCn1cnc([N+](=O)[O-])n1 | > 100 µM | > 31.6 µM | > 100 µM | > 100 µM | > 100 µM | > 100 µM | > 100 µM | > 100 µM | > 100 µM | > 100 µM |  |  |  |  |  |  |  |  |  | 
2 | Cn1cc(-c2ccc3c(c2)CCN3C(=O)Cc2cccc(C(F)(F)F)c2)c2c(N)ncnc21 | 13.2 µM | 29 µM | > 100 µM | 8.14 µM | 22.9 µM | 21.4 µM | 14.3 µM | > 100 µM | 19 µM | 33 µM | 0.871 µM | 8.7 µM | 3.94 µM | 1.26 µM | 7.06 µM | 4.72 µM | 0.673 µM | 2.41 µM | 2.76 µM | 5.39 µM
3 | COC(=O)C(=O)C(C(=O)C=C(C)C)C(=O)C(=O)Nc1cccc(C(C)=O)c1 (stereo not given) | > 100 µM | > 100 µM | > 100 µM | > 100 µM | > 100 µM | > 100 µM | > 100 µM | > 100 µM | > 100 µM | > 100 µM |  |  |  |  |  |  |  |  |  | 
4 | COc1cc(/C=C(/c2ccccc2)[N+](=O)[O-])c(OC)c2c1OCO2 | 3.08 µM | 3.32 µM | > 100 µM | 8.29 µM | 2.95 µM | 2.84 µM | 2.54 µM | 3.15 µM | 2.04 µM | 5.64 µM | 1.71 µM | 1.69 µM | 0.522 µM | 2.89 µM | 1.58 µM | 1.47 µM | 1.28 µM | 1.74 µM | 0.539 µM | 1.79 µM
5 | CCN1C(=O)N(CC)C2C1NN=c1s/c(=C3\C(=O)N(C)c4ccccc43)c(=O)n12 (stereo not given) | > 100 µM | > 100 µM | > 100 µM | > 100 µM | > 100 µM | > 100 µM | > 100 µM | > 100 µM | 20.3 µM | 2.05 µM | 0.752 µM | 3.25 µM | 1.37 µM | 6.03 µM | 2.89 µM | 3.09 µM | 1.28 µM | 8.51 µM | 0.397 µM | 0.434 µM
6 | CC(C)[C@@H](COC(C)(C)C)N=CN1CCc2c([nH]c3ccccc23)C1 | > 100 µM | > 100 µM | > 100 µM | > 100 µM | > 100 µM | > 100 µM | > 100 µM | > 100 µM | > 100 µM | > 100 µM |  |  |  |  |  |  |  |  |  | 
7 | C=C[C@]1(C)C=C2C(=O)[C@@]3(O)OC[C@@]4(CCCC(C)(C)C43O)C2(O)C(O)C1 (stereo not given in full) | 3.1 µM | 31.3 µM | 16.5 µM | 69.6 µM | > 69 µM | 15.6 µM | 3 µM | 5.47 µM | 14 µM | 13 µM | 1.54 µM | 15 µM | 1.83 µM | 23 µM | 23.3 µM | 4.26 µM | 1.34 µM | 2.32 µM | 3.51 µM | 3.41 µM
8 | CCO[C@@H]1C2C=CC(C2)[C@H]1[N+](=O)[O-] (stereo not given in full) | > 100 µM | > 100 µM | > 100 µM | > 100 µM | > 100 µM | > 100 µM | > 100 µM | > 100 µM | > 100 µM | > 100 µM |  |  |  |  |  |  |  |  |  | 
9 | CC[CH2][Pb]([CH2]CC)([CH2]CC)[NH]S(=O)(=O)c1ccc(C)cc1 | 0.2 µM | 0.317 µM | 0.23 µM | 0.276 µM | 0.143 µM | 0.241 µM | 0.274 µM | 0.307 µM | 0.132 µM | 0.272 µM | 0.0668 µM | 0.0739 µM | 0.0371 µM | 0.0788 µM | 0.0349 µM | 0.0764 µM | 0.143 µM | 0.0682 µM | 0.0421 µM | 0.0643 µM
10 | COC(=O)C(Cc1nc2ccc(Cl)cc2[nH]c1=O)C(=O)C(=O)Nc1ccccc1[N+](=O)[O-] (stereo not given) | > 100 µM | > 100 µM | > 100 µM | > 100 µM | > 100 µM | > 100 µM | > 100 µM | > 100 µM | > 100 µM | > 100 µM |  |  |  |  |  |  |  |  |  | 
11 | Cc1ccc2c(c1)ncn2-c1ncnc2c1CC(C)c1ccccc1N2C (stereo not given) | 12.1 µM | 18 µM | 10.5 µM | 17.7 µM | 20.7 µM | 15.6 µM | 7.11 µM | 24.7 µM | 18.1 µM | 0.0781 µM | 0.383 µM | 0.154 µM | 0.046 µM | 0.139 µM | 0.17 µM | 1.84 µM | 0.317 µM | 0.624 µM | 0.0892 µM | 0.0282 µM
12 | Cc1cc(N2CCCC2)nc(N(CCCNc2ccnc3cc(Cl)ccc23)Cc2ccc3c(c2)OCO3)n1 | 5.93 µM | > 100 µM | 4.03 µM | 20.3 µM | 12.7 µM | 2.74 µM | 3.71 µM | 8.22 µM | 4.33 µM | 1.36 µM | 1.67 µM | 3.16 µM | 0.398 µM | 4.98 µM | 2.45 µM | 1.3 µM | 0.677 µM | 1.86 µM | 1.54 µM | 0.402 µM
13 | CCSc1nc(COC(=O)NC)c(COC(=O)NC)n1C | 35.5 µM | > 100 µM | > 100 µM | > 95 µM | > 100 µM | > 100 µM | > 100 µM | > 84.7 µM | > 100 µM | > 100 µM |  |  |  |  |  |  |  |  |  | 
14 | CC(=O)NC(CCCN(Cc1ccccc1)C(=O)N(CCCl)N=O)C(=O)NCc1ccccc1 (stereo not given) | > 96.3 µM | > 100 µM | > 100 µM | > 100 µM | > 100 µM | > 100 µM | > 100 µM | > 100 µM | 63.9 µM | 57.1 µM |  |  |  |  |  |  |  |  |  | 
